The source of these data is patent US5061720A, “Substituted-4-thiazolidinone derivatives” (A. H. Robins Company, Inc., priority 1989, dated 1991).

pIC50: −log10 of the molar value.

For the assay, the target named is T1, cyclooxygenase (Ovis aries, UniProt P05979).
T1 construct: Lipid-depleted Sheep Seminal Vesicle Microsome Suspension; from tissue; host or cells: sheep seminal vesicle microsomes (lipid-depleted powder, detergent solubilized)
T1 sequence (P05979 25-600): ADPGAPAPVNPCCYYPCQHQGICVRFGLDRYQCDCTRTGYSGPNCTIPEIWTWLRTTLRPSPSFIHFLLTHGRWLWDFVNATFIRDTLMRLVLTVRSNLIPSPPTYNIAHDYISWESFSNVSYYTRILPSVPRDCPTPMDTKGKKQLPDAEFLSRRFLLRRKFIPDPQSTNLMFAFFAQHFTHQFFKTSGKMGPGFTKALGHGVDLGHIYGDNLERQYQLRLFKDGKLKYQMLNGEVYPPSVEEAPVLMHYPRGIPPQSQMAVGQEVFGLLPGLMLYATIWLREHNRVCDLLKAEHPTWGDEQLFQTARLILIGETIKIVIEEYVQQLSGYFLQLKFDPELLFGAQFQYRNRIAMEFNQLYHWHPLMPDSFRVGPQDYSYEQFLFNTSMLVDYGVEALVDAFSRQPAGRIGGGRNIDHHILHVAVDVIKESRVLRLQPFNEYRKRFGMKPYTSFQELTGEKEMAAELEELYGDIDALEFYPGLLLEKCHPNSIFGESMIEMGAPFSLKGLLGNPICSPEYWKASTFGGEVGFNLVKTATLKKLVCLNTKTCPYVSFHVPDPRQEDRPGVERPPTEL
The assay can be described thus: Cyclooxygenase Assay (polarigraphic oxygen consumption, lipid-depleted sheep seminal vesicle microsomes). The assay is classed as biochemical. The settings on record: 30° C., 2 min incubation, ammonium arachidonate substrate. Here is the method:
Cyclooxygenase activity was determined polarigraphically with detergent solubilized, lipid-depleted sheep seminal vesical microsomes. Addition of test articles that inhibit cyclooxygenase, including reference standards, cause a decrease in the rate of oxygen consumption in the reactions. Cyclooxygenase activity is determined using the following procedures:
I. Preparation of Test Materials
1. Lipid-Depleted Sheep Seminal Vesicle Microsomal Powder. This preparation follows the procedure of G. Graff et al. J. Biol. Chem. 253, 7662 (1978).
2. Ammonium Arachidonate Solution. A 250 μL aliquot of 20.0 mM arachidonic acid in absolute ethanol and a 50-μL aliquot of concentrated ammonium hydroxide is placed into a test tube. The solvent and excess ammonium hydroxide is evaporated under a stream of nitrogen at room temperature. The ammonium arachidonate residue is dissolved in 500 μL of 100 mM 2-amino-2-hydroxymethyl-1,3-propanediol hydrochloride (Tris HCl) buffer (pH 8.0) by using a vortex mixer. The final concentration of ammonium arachidonate (working solution) is 10.0 mM.
3. Enzyme Buffer 100 mM Tris HCl (pH 8.0) containing 2.0 mM phenol, 5.0 mM ethylenediaminetetraacetic acid (EDTA), 5.0 mM diethyldithiocarbamic acid and 1.0% Tween 20.
4. Reaction Buffer 100 mM Tris HCl (pH 8.0) containing 2.0 μM hematin and 1.0 mM phenol (prepared daily).
5. Detergent Solubilized Lipid-depleted Sheep Seminal Vesicle Microsome Suspension. Ten mg (solid) of lipid-depleted microsomal powder from sheep seminal vesicles is suspended in 1.0 mL of enzyme buffer and kept at 4° C. until used.
6. Solutions of Test (Formula I compound) or Reference Articles. Test and reference articles are dissolved in the reaction buffer prepared in 4) or a solvent that will not interfere with cyclooxygenase activity, e.g., dimethylsulfoxide, ethanol or acetone.
II. Cyclooxygenase Inhibition Assay
Three mL of the reaction buffer and 20 μL of the microsomal enzyme suspension are placed in a Yellow Springs Instrument (YSI) oxygen chamber where the temperature is maintained at 30° C. by means of a temperature controlled circulating water bath. Aliquots of the solutions containing ≤[…] of Formula I compound (test article) or reference article [see 6) above] are added to the YSI chamber and incubated for 2 minutes. The reaction is initiated by addition of 30 μL of the 10 mM ammonium arachidonate solution and cyclooxygenase activity determined polarigraphically using an oxygen electrode by measuring the rate of oxygen consumption [Cook et al., Anal. Biochem 96 341-51 (1979) and Cook and Lands, Can. J. Biochem. 53, 1220-1231 (1975)].
Test, reference, and control articles were evaluated in triplicate. Cyclooxygenase activity was determined from the slope (mv/unit time) of the recorder tracing with 1 mV being proportional to a 2.34 μM change in oxygen concentration.
The IC50 (concentration of test or reference article that inhibits the reaction by 50%) was calculated from cumulative plots relating the extent of inhibition of cyclooxygenase activity in control group assays to increasing concentrations of test article. Where no inhibition exists, the IC50 is expressed as greater than the highest concentration of the drug tested.
Take `CCCC[C@@H]1S[C@@H](c2cccc(Oc3ccccc3)c2)NC1=O` (relative stereo) [Example 83, 5-Butyl-2-(3-phenoxyphenyl)-4-thiazolidinone]: the pIC50 was 4.92.
With `CCCCC1SC(c2cccc(Oc3ccccc3)c2)N(CCCCc2ccccc2)C1=O` (stereo not shown) [Example 1, 5-Butyl-2-(3-phenoxyphenyl)-3-(4-phenylbutyl)-4-thiazolidinone] the figure was 7.05; with `CC1SC(c2cccc(Oc3ccccc3)c2)N(CCCCc2ccccc2)C1=O` (stereo not shown) [Example 7, 5-Methyl-2-(3-phenoxyphenyl)-3-(4-phenylbutyl)-4-thiazolidinone], 5.85.
With `CCCC[C@@H]1S[C@H](c2cccc(Oc3ccccc3)c2)N(CCCCCC(=O)OCC)C1=O` (relative stereo) [Example 51] the figure was 6.59; with `CCCCC1SC(c2cccc(C(=O)c3ccccc3)c2)N(CCCCc2ccccc2)C1=O` (stereo not shown) [Example 8, 2-(3-Benzoylphenyl)-5-butyl-3-(4-phenylbutyl)-4-thiazolidinone], 8.00.
The figure for `CCCCC1SC(c2cccc(Oc3ccccc3)c2)N(CCc2ccccc2)C1=O` (stereo not shown) [Example 17, 5-Butyl-2-(3-phenoxyphenyl)-3-(2-phenylethyl)-4-thiazolidinone] is 5.47; for `CCCCC1SC(c2cccc(Oc3ccccc3)c2)N(CCCCC(=O)O)C1=O` (stereo not shown) [Example 45, 5-Butyl-4-oxo-2-(3-phenoxyphenyl)-3-thiazolidinepentanoic acid] it is 5.03.

As a reminder, the pIC50 is −log10 of the IC50, conventionally taken in molar units. Low readings indicate a large IC50, high ones a small IC50.
